# Experimental data taken from patent US20090253794A1, “Fibroblast Activator, Collagen Production Promoter, Collagen Contraction Promoter, Hyaluronic Acid Production Promoter, ATP Production Promoter, Melanin Formation Inhibitor, and Agent for External Application to the Skin” (priority 2005, published 2009).
# Experiments:
# Assay type in all cases: cell-based
# [1] = tested on: normal skin fibroblasts derived from human; assay: fibroblast activating action evaluation test by the MTT reduction method; conditions: 48 hr culture, control = 100
# Description: The present inventors performed a fibroblast activating action evaluation test by the MTT reduction method and using normal skin fibroblasts derived from human (see TIM Mosmann; Journal of Immunological Methods p 55-63, 1983).
# Using DMEM (Gibco) containing 5% FBS (fetal bovine serum; purchased from NICHIREI CORPORATION), normal skin fibroblasts derived from human (manufactured by KURABO INDUSTRIES LTD.) were plated on a 96 well plate at a density of 2×10^4 cells/well, and cultured at 37° C., 5% CO2 for 24 hr. After removing the medium, the cells were washed with PBS(−) (NISSUI PHARMACEUTICAL CO., LTD.), the medium was changed to DMEM containing 1% FBS supplemented with each concentration of conagenin, and the cells were cultured at 37° C., 5% CO2. The blank was […] containing 1% FBS, which was free of test specimen. After culture for 48 hr, the absorbance at 550 nm was measured by MTT reduction method, based on which the MTT reduction amount was determined. The cell activation rate was shown in a percentage relative to the absorbance of additive-free cultured cell (control) as 100.
# [2] = tested on: normal human skin fibroblasts; assay: type I collagen production promoting effect (PIP in culture supernatant) and cell count; conditions: for produced amount of collagen: 24 hr, relative value, negative control = 100, n=3 average; for number of cells: cells per well, counted visually after trypsin, negative control 4.9 × 10^5
# Description: Normal human skin fibroblasts (manufactured by KURABO INDUSTRIES LTD.) were added to a 24 well plate at 5×10^4 cells per well. Using Medium 106S medium (manufactured by KURABO INDUSTRIES LTD.) containing 2% FBS, the cells were cultured under an atmosphere of 95% (V/V) air-5% (V/V) carbon dioxide gas at 37° C. for 24 hr. The medium was changed to Medium 106S medium (free of FBS) containing each sample, and the cells were cultured under the same conditions for 24 hr. After the completion of culture, the culture supernatant was taken to evaluate the type I collagen biosynthesizability and, to count the cells, the cells were harvested by a trypsin treatment. The samples used were two kinds of conagenin contents of 0.1 μM, 1 μm, 10 μM, 100 μM, 1 mM (final concentration), and magnesium L-ascorbyl phosphate (manufactured by Wako Pure Chemical Industries, Ltd., final concentration 100 μM) as a positive control (one added with PBS instead of the sample was used as a negative control).
# human normal melanocytes = assay: melanin formation suppression test in human melanocytes (L-DOPA, absorbance 495 nm); conditions: 5 days, relative value, without addition of sample = 100
# Description: A melanin formation suppression test was performed using human melanocytes (manufactured by KURABO INDUSTRIES LTD.). That is, human normal melanocytes amplified in Medium 254 medium (human melanocyte medium added with HMGS, manufactured by KURABO INDUSTRIES LTD.) was added to a 96 well plate at 10^4 cells per well, and cultured in a carbon dioxide incubator adjusted to 5% (v/v) carbon dioxide gas at 37° C. for about 24 hr. Then, pure water or a sample (conagenin) dissolved in pure water was added thereto to a final concentration of 0.1 mM, 1.0 mM or 10 mM. As a positive control, kojic acid (manufactured by Sigma Ltd.) was added to the same concentration. The cells were cultured for 5 more days under the same conditions. To the recovered cells was added 50 μl of cell suspension (PBS buffer containing Triton X-100 at 0.1% (v/v)). After thorough suspending, the suspension was stood at 4° C. for 1 hr. Thereto was added 50 μl of 10 mM L-DOPA (manufactured by Nacalai Tesque), and the mixture was incubated at 37° C. for 1 hr. Thereafter, the absorbance at 495 nm was measured by a plate reader (multiscanplus MKII, manufactured by Japan Flow Laboratory), and the melanin formation amount was measured (shown in a relative value to the value without addition of sample as 100).
# human skin fibroblasts = assay: type I collagen gel contractability after glucose modification (glycated collagen); conditions: one week, negative control = 1
# Description: A collagen solution (collagen was used trade name I-AC, manufactured by KOUKEN Co., Ltd.) was prepared on ice according to the explanation insert attached to the product, and the collagen was gelled in 12 wells at 37° C. A glucose-6-phosphate solution was added to the final concentration of 100 mM, and the mixture was incubated at 37° C. for 7 days to allow glycation reaction. Unreacted glucose-6-phosphate was removed, 1×10^5 cells/ml of fibroblast was sown on the collagen gel, and cultured for 5 hr using a 0.25% FBS/DMEM medium. The medium was removed, and […] or 0.25% FBS/DMEM medium containing PBS as negative control was added. The gel was detached from the dish wall, and the level of contraction of the gelled collagen was examined. As a positive control, DMEM medium containing 10% FBS was used. The medium was changed every 2 days and, one week later, the medium was removed by suction. The diameter of the collagen gel was measured, the area was calculated, and the area ratio was compared to that of the negative control as 1.
smiles,measurement,setting,value
"C[C@@H]([C@@H](C)O)[C@@H](O)C(=O)N[C@@](C)(CO)C(=O)O [conagenin, (2S)—N-[(2R,3S,4R)2,4-dihydroxy-3-methyl-pentanoyl]-2-methylserine]",cell activation rate,[1]; 0.01 μM,105%
same,cell activation rate,[1]; 0.05 μM,120%
same,cell activation rate,[1]; 0.1 μM,125%
same,cell activation rate,[1]; 1 μM,111%
same,cell activation rate,[1]; 10 μM,113%
same,cell activation rate,[1]; 40 μM,124%
same,cell activation rate,[1]; 80 μM,113%
same,cell activation rate,[1]; 160 μM,113%
same,cell activation rate,[1]; 310 μM,113%
same,produced amount of collagen,[2]; 0.1 μM,196
same,number of cells,[2]; 0.1 μM,5.1 × 10^5
same,produced amount of collagen,[2]; 1 μM,197
same,number of cells,[2]; 1 μM,5.1 × 10^5
same,produced amount of collagen,[2]; 10 μM,204
same,number of cells,[2]; 10 μM,5.2 × 10^5
same,produced amount of collagen,[2]; 100 μM,208
same,number of cells,[2]; 100 μM,4.8 × 10^5
same,produced amount of collagen,[2]; 1 mM,202
same,number of cells,[2]; 1 mM,4.7 × 10^5
same,melanin formation amount,human normal melanocytes; 100 μM,92
same,melanin formation amount,human normal melanocytes; 1 mM,66
same,melanin formation amount,human normal melanocytes; 10 mM,17
same,collagen gel area ratio,human skin fibroblasts; 1 μM,0.81
same,collagen gel area ratio,human skin fibroblasts; 100 μM,0.64
same,collagen gel area ratio,human skin fibroblasts; 5 mM,0.49
